Legend:
BA/F3 cell line = assay: BA/F3 viability assay; details: Mus musculus, BaF3, 48 h, read-out: BA/F3 IC50
human TYK2 = biological target: T1, human TYK2 (Homo sapiens, UniProt P29597); assay: TYK2 inhibition assay; format: biochemical; details: recombinant human TYK2 catalytic domain, polyGT substrate
T1 construct: catalytic domain (amino acids 871-1187; catalog number 08-147); purchased Carna Biosciences 08-147
T1 sequence (P29597 871-1187): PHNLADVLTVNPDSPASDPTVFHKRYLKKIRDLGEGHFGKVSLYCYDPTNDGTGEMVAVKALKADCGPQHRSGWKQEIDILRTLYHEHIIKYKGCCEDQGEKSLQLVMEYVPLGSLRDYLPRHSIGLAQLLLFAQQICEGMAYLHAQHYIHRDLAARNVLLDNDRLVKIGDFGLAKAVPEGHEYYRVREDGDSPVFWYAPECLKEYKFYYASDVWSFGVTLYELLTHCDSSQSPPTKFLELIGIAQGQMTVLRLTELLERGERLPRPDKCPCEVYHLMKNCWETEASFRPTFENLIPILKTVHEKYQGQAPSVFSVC
Summary of the method: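 Radiometric kinase reaction run 90 min at 30 °C, stopped with phosphoric acid, washed and scintillation-counted.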

human JAK1 = biological target: T2, human JAK1 (Homo sapiens, UniProt P23458); assay: JAK1 inhibition assay (polyGT substrate / Ulight-JAK1 peptide); format: biochemical; details: recombinant human JAK1 catalytic domain; polyGT or Ulight-JAK1 peptide assay
T2 construct: catalytic domain, amino acids 866-1154; catalog number PV4774; purchased Invitrogen PV4774
T2 sequence (P23458 866-1154): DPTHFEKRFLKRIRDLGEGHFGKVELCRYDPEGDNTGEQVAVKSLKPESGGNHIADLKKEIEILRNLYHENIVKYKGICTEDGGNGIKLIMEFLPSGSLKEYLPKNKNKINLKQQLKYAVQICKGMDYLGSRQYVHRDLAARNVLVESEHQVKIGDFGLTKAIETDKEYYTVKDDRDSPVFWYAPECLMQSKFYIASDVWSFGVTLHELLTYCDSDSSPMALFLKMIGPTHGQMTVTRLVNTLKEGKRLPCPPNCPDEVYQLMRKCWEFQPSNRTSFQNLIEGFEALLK
Summary of the method: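 Two formats. PolyGT radiometric: 45 min at 30 °C, stopped with phosphoric acid, counted as cpm. Ulight-JAK1 peptide: 60 min at room temperature, stopped with Eu-anti-phosphotyrosine/EDTA, read as RFU. Percent inhibition normalised to vehicle and 10 μM staurosporine.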

[1] = tested on: pSTAT1(2)-luciferase reporter in HeLa cells triggered with human OSM; assay: JAK-STAT signalling assay; format: cell-based; details: Homo sapiens, HeLa, HeLa cells, pSTAT1(2)-luciferase reporter, human OSM 33 ng/mL; read-out: JAK-STAT IC50
Summary of the method: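 HeLa cells transiently co-transfected with pSTAT1(2)-luciferase and LacZ control reporter, preincubated with compound 60 min, then stimulated with human OSM (33 ng/mL final) overnight at 37 °C. Luciferase read by luminescence; percent inhibition from vehicle and no-trigger controls, EC50 from dose-response.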

CTLL-2 cell line = assay: CTLL2 viability assay; format: cell-based; details: Mus musculus, IL-2 dependent CTLL2 viability, 24 h, ATP-lite
From the text: The protocol describes the methods to analyse the activity of compounds on their ability to sustain the IL2-dependent viability of CTLL2.
Final DMSO concentration was 0.1%.

human JAK3 = biological target: T3, human JAK3 (Homo sapiens, UniProt P52333); assay: JAK3 inhibition assay; format: biochemical; details: recombinant human JAK3 catalytic domain; polyGT substrate
T3 construct: catalytic domain (amino acids 781-1124; catalog number PV3855); purchased Invitrogen PV3855
T3 sequence (P52333 781-1124): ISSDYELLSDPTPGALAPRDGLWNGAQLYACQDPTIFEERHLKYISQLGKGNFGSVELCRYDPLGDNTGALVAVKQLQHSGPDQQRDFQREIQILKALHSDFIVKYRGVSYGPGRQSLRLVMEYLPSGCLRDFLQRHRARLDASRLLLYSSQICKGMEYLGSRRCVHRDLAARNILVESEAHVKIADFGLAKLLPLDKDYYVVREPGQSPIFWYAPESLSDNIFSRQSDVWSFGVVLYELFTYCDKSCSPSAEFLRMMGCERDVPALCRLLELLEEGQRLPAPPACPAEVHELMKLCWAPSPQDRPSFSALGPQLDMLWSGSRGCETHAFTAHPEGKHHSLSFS
Summary of the method: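 Radiometric kinase assay: 0.5 ng JAK3 with 2.5 μg polyGT in Tris pH 7.5/MgCl2 buffer, 1 μM ATP plus 0.25 μCi 33P-γ-ATP, 1% DMSO, 45 min at 30 °C, stopped with phosphoric acid.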

human JAK2 = biological target: T4, human JAK2 (Homo sapiens, UniProt O60674); assay: JAK2 inhibition assay (polyGT substrate / Ulight-JAK1 peptide); format: biochemical; details: recombinant human JAK2 catalytic domain; polyGT or Ulight-JAK1 peptide assay
T4 construct: catalytic domain (amino acids 808-1132; catalog number PV4210); GST; purchased Invitrogen PV4210
T4 sequence (O60674 808-1132): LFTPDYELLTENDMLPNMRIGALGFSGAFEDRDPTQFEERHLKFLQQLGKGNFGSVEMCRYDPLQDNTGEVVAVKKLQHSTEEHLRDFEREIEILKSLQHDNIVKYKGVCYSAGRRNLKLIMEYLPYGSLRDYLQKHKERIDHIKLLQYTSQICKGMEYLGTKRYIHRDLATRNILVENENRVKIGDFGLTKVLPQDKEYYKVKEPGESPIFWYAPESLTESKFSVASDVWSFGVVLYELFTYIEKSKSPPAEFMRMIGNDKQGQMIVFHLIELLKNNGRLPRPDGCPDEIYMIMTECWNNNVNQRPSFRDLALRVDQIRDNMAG
Summary of the method: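 Radiometric: 0.025 mU JAK2 with 2.5 μg polyGT, 1 μM ATP plus ^33P-ATP in MOPS pH 7.5 buffer, 1% DMSO, 90 min at 30° C.; filter counting. Alternative TR-FRET format with Ulight-JAK1 peptide, 60 min at room temperature, Eu-anti-phosphotyrosine detection.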

Compound	IC50 (BA/F3 cell line)	IC50 (human TYK2)	IC50 (human JAK1)	IC50 [1]	IC50 (human JAK3)	IC50 (human JAK2)	IC50 (CTLL-2 cell line)
CCc1cc(C(C#N)N2CCC(F)(F)CC2)ccc1N(C)c1cc2c(cn1)ncn2C (centres unmarked) [Compound 395, (4,4-Difluoro-piperidin-1-yl)-{3-ethyl-4-[methyl-(1-methyl-1H-imidazo[4,5-c]pyridin-6-yl)-amino]-phenyl}-acetonitrile]	> 5000 nM	0.01 to 100 nM	0.01 to 100 nM	–	101 to 500 nM	0.01 to 100 nM	> 1000 nM
CCc1cc(C(C#N)N2CCN(C(C)=O)CC2)ccc1N(C)c1cc2c(cn1)ncn2C (centres unmarked) [Compound 396, (4-Acetyl-piperazin-1-yl)-{3-ethyl-4-[methyl-(1-methyl-1H-imidazo[4,5-c]pyridin-6-yl)-amino]phenyl}-acetonitrile]	> 5000 nM	0.01 to 100 nM	0.01 to 100 nM	–	0.01 to 100 nM	0.01 to 100 nM	> 1000 nM
CCc1cc(N2CC(C(=O)NC)C2)ncc1N(C)c1cc2c(cn1)ncn2C [Compound 400, 1-{4-Ethyl-5-[methyl-(1-methyl-1H-imidazo[4,5-c]pyridin-6-yl)-amino]-pyridin-2-yl}-azetidine-3-carboxylic acid methylamide]	> 5000 nM	501 to 1000 nM	101 to 500 nM	–	> 1000 nM	501 to 1000 nM	> 1000 nM
CN(c1cc2c(cn1)ncn2C)c1c(F)cc(CNS(C)(=O)=O)cc1F [Compound 404, N-{3,5-Difluoro-4[methyl-(1-methyl-1H-imidazo[4,5-c]pyridin-6-yl)-amino]-benzyl}-methanesulfonamide]	> 5000 nM	101 to 500 nM	0.01 to 100 nM	–	101 to 500 nM	0.01 to 100 nM	> 1000 nM
CCc1cc(CC#N)ncc1N(C)c1cc2c(cn1)ncn2C [Compound 407, {4-Ethyl-5-[methyl-(1-methyl-1H-imidazo[4,5-c]pyridin-6-yl)-amino]-pyridin-2-yl}-acetonitrile]	> 5000 nM	101 to 500 nM	0.01 to 100 nM	–	501 to 1000 nM	0.01 to 100 nM	> 1000 nM
CN(c1cc2c(cn1)ncn2C)c1c(F)cc(C2CN(S(C)(=O)=O)C2)cc1F [Compound 409, [2,6-Difluoro-4-(1-methanesulfonyl-azetidin-3-yl)-phenyl]-methyl-(1-methyl-1H-imidazo[4,5-c]pyridin-6-yl)-amine]	> 5000 nM	> 1000 nM	0.01 to 100 nM	–	501 to 1000 nM	101 to 500 nM	> 1000 nM
CCc1cc(C(C#N)N2CCNC(=O)C2)ccc1N(C)c1cc2c(cn1)ncn2C (centres unmarked) [Compound 410, {3-Ethyl-4-[methyl-(1-methyl-1H-imidazo[4,5-c]pyridin-6-yl)-amino]-phenyl}-(3-oxo-piperazin-1-yl)-acetonitrile]	> 5000 nM	0.01 to 100 nM	0.01 to 100 nM	–	0.01 to 100 nM	0.01 to 100 nM	> 1000 nM
CN(c1cc2c(cn1)ncn2C)c1ccc(CNS(C)(=O)=O)cc1OC(F)F [Compound 429, N-{3-Difluoromethoxy-4-[methyl-(1-methyl-1H-imidazo[4,5-c]pyridin-6-yl)-amino]-benzyl}-methanesulfonamide]	> 5000 nM	101 to 500 nM	0.01 to 100 nM	–	0.01 to 100 nM	0.01 to 100 nM	> 1000 nM
CN(c1cc2c(cn1)ncn2C)c1ccc(CN(C)S(C)(=O)=O)cc1OC(F)F [Compound 430, N-{3-Difluoromethoxy-4-[methyl-(1-methyl-1H-imidazo[4,5-c]pyridin-6-yl)-amino]-benzyl}-N-methyl-methanesulfonamide]	1000 to 5000 nM	0.01 to 100 nM	0.01 to 100 nM	–	0.01 to 100 nM	0.01 to 100 nM	> 1000 nM

More lines, main results first:

IC50 (BA/F3 cell line)	IC50 (human TYK2)	IC50 (human JAK1)	IC50 [1]	IC50 (human JAK3)	IC50 (human JAK2)	Compound	IC50 (CTLL-2 cell line)
1000 to 5000 nM	0.01 to 100 nM	0.01 to 100 nM	1 to 500 nM	0.01 to 100 nM	–	CCc1cc(-c2cncs2)ccc1N(C)c1cc2c(cn1)ncn2C [Compound 151, N-(2-Ethyl-4-(thiazol-5-yl)phenyl)-N,1-dimethyl-1H-imidazo[4,5-c]pyridin-6-amine]	> 1000 nM
1 to 1000 nM	0.01 to 100 nM	0.01 to 100 nM	1 to 500 nM	–	–	CCc1cc(C2CCN(S(C)(=O)=O)CC2)ccc1N(C)c1cc2c(cn1)ncn2C [Compound 214, N-(2-ethyl-4-(1-(methylsulfonyl)piperidin-4-yl)phenyl)-N,1-dimethyl-1H-imidazo[4,5-c]pyridin-6-amine]	501 to 1000 nM
1000 to 5000 nM	0.01 to 100 nM	0.01 to 100 nM	–	0.01 to 100 nM	0.01 to 100 nM	CCc1cc(C2(CCNS(=O)(=O)C(F)F)COC2)ccc1N(C)c1cc2c(cn1)ncn2C [Compound 397, N-[2-(3-{3-Ethyl-4-[methyl-(1-methyl-1H-imidazo[4,5-c]pyridin-6-yl)-amino]-phenyl}-oxetan-3-yl)-ethyl]-C,C-difluoro-methanesulfonamide]	> 1000 nM
1000 to 5000 nM	101 to 500 nM	0.01 to 100 nM	–	0.01 to 100 nM	0.01 to 100 nM	CCc1cc(C2(COS(=O)(=O)C(F)F)CCNC2)ccc1N(C)c1cc2c(cn1)ncn2C (centres unmarked) [Compound 398, difluoro-methanesulfonic acid 3-{3-ethyl-4-[methyl-(1-methyl-1H-imidazo[4,5-c]pyridin-6-yl)-amino]-phenyl}-pyrrolidin-3-ylmethyl ester]	> 1000 nM
1000 to 5000 nM	0.01 to 100 nM	0.01 to 100 nM	–	101 to 500 nM	0.01 to 100 nM	CCc1cc(N2CC(C#N)C2)ncc1N(C)c1cc2c(cn1)ncn2C [Compound 402, 1-{4-Ethyl-5-[methyl-(1-methyl-1H-imidazo[4,5-c]pyridin-6-yl)-amino]-pyridin-2-yl}-azetidine-3-carbonitrile]	> 1000 nM
1000 to 5000 nM	0.01 to 100 nM	0.01 to 100 nM	–	501 to 1000 nM	0.01 to 100 nM	CN(c1cc2c(cn1)ncn2C)c1c(F)cc(CC#N)cc1F [Compound 405, {3,5-Difluoro-4-[methyl-(1-methyl-1H-imidazo[4,5-c]pyridin-6-yl)-amino]-phenyl}-acetonitrile]	> 1000 nM
1000 to 5000 nM	0.01 to 100 nM	0.01 to 100 nM	–	0.01 to 100 nM	0.01 to 100 nM	CCc1cc(CC#N)ccc1N(C)c1cc2c(cn1)ncn2C [Compound 406, {3-Ethyl-4-[methyl-(1-methyl-1H-imidazo[4,5-c]pyridin-6-yl)-amino]-phenyl}-acetonitrile]	501 to 1000 nM
1000 to 5000 nM	0.01 to 100 nM	0.01 to 100 nM	–	0.01 to 100 nM	0.01 to 100 nM	CCc1cc(N2CCC(F)(F)C2)ncc1N(C)c1cc2c(cn1)ncn2C [Compound 411, [6-(3,3-Difluoro-pyrrolidin-1-yl)-4-ethyl-pyridin-3-yl]-methyl-(1-methyl-1H-imidazo[4,5-c]pyridin-6-yl)-amine]	> 1000 nM
1000 to 5000 nM	0.01 to 100 nM	0.01 to 100 nM	–	101 to 500 nM	0.01 to 100 nM	CCc1cc(N2CC(F)(F)C2)ncc1N(C)c1cc2c(cn1)ncn2C [Compound 413, [6-(3,3-Difluoro-azetidin-1-yl)-4-ethyl-pyridin-3-yl]-methyl-(1-methyl-1H-imidazo[4,5-c]pyridin-6-yl)-amine]	> 1000 nM
